Measurements taken from US7973162B2, “Modulators of muscarinic receptors” (Vertex Pharmaceuticals Incorporated, priority 2007, dated 2011).

target: T1, M4 muscarinic receptor (Homo sapiens, UniProt P08173); assay: Functional mobilization of intracellular calcium (FLIPR), M4-CHO cells; assay type: cell-based; conditions: 100% efficacy = maximum response obtained with the Carbachol control
T1 construct: expressed in transfected cells; host or cells: CHO (M4-CHO)
T1 sequence (P08173 1-479): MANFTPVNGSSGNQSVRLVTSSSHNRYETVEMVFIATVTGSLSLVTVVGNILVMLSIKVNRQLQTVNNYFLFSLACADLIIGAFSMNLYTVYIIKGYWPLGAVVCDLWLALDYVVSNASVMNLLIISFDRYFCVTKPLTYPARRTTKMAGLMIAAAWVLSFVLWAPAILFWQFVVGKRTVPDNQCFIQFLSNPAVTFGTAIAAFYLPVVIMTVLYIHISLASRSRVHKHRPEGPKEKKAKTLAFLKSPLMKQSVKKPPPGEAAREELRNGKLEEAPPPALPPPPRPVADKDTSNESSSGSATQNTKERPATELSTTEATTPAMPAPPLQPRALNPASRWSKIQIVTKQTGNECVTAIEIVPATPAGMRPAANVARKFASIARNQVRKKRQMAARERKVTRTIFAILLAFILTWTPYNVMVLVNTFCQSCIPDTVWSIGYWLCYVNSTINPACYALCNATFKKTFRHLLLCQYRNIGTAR
Description: (§1) Functional Mobilization of Intracellular Calcium to Determine Muscarinic Receptor Activity:
(§2) CHO cells expressing muscarinic receptors (M1 to M5) are grown as monolayers in tissue culture flasks at 37° C. in a humidified atmosphere containing 5% CO2 and passaged every 3-5 days. The growth media is Dulbecco's modified eagles medium (DMEM, Gibco Cat# 12430-054), containing 25 mM Hepes and supplemented with Fetal Bovine Serum (Hyclone, cat #SH30071.03), 0.1 mM of MEM non-essential amino acids (GIBCO, Cat #11140-050), 1 mM MEM Sodium Pyruvate (GIBCO Cat #11360-070) and 100 units/ml of Penicillin G and 100 μg/ml of Streptomycin (GIBCO Cat #15140-122). The recombinant muscarinic receptor cell lines are grown under antibiotic pressure with media containing 25 μg/ml zeocin and 500 μg/ml G418 (M1-CHO), 4 μg/ml puromycin, 50 μg/ml zeocin and 2.5 μg/ml blasticidin (M2 and M4-CHO) or 50 μg/ml zeocin and 4 μg/ml puromycin (M3 and M5-CHO).
(§3) Cells are harvested at 80-90% confluence using Versene (GIBCO Cat #15040-066), collected by centrifugation and seeded 18-24 hrs prior to running the calcium assay at a density of 5,000-10,000 cells/well in […], clear-bottomed 384-well plates (BD Biocoat, poly-D-lysine, Cat#356663). The day of the experiment, the cells are washed with a plate washer (Bioteck Instruments, ELX 405) using bath1 buffer (140-mM NaCl, 4.5-mM KCl, 2-mM CaCl2, 1-mM MgCl2, 10-mM Hepes-Na, 10-mM Glucose, pH 7.4, with NaOH) containing 1 mM Probenecid. Next, the calcium dye Fluo-3 (25 μl/well of Fluo-3 AM at 4 μM, Molecular Probes F-1241, in Bath 1 buffer containing 1 mM Probenecid) is added to the 25 μl of Bath 1 remaining in each well after the plate wash and the dye is loaded at 37° C. in the tissue culture incubator for 60-90 min. The fluorescent dye is removed using the plate washer with Bath 1 containing 1 mM Probenecid, leaving 25 μl/well of this solution after the wash. Alternatively, cells can be loaded with the calcium indicator from Molecular Devices (Calcium 3 Assay Reagents, Cat #R7181) adding 5 μl of a 5× solution dye in Bath 1 containing 1 mM Probenecid (10 ml per dye flask cat #R7182 to generate a solution 20×) to 20 μl of the same buffer. After loading for 60 min, the experiment can be run without having to remove the dye.
(§4) Compounds are prepared at a 2× fold concentration in a 96-well plate (round bottom, Costar Corning cat #3656), by reconstituting the pre-spotted compounds in bath 1 containing 1 mM probenecid. The final concentration DMSO is 0.5%, and the amount of DMSO is normalized across the assay plate. To determine an agonist action of the compounds on muscarinic receptors, the reconstituted compounds are added (25 μl compound/well) to the cell assay plate (containing 25 μl/well) using the multi-channel robotic system of the FLIPR 3 Instrument (Molecular Devices, Sunnyvale, Calif.). To determine a functional inhibitory action of the compounds on muscarinic receptors, the reconstituted compounds are added (25 μl compound/well) to the assay plate and pre-incubated for 15 min prior to adding 25 μl of Carbachol at 3× the EC80 for each muscarinic subtype. Alternatively, the compounds can be co-applied simultaneously with the agonist. In both assay modes, the fluorescence is recorded for 60 sec (excitation wavelength is […] and emission wavelength 540 nm) using the FLIPR 3 instrument.
(§5) The potency, efficacy and selectivity of the muscarinic compounds were evaluated by screening the compound activity across the whole family (M1 to M5 cells). Compounds were also screened for activity on other proteins such as other GPCRs and ion channels to determine selectivity on M4 receptors.
(§6) Examples of activities and efficacies of the muscarinic compounds of formulae (I, Ia, and Ib) on modulating M1 and M4 receptors are shown below in Table 3. […]

| SMILES | Emax [%] |
| --- | --- |
| CCOC(=O)N1CCC(N2CCC3(CC2)CC2CCOC2c2ccccc23)CC1 (stereo not drawn) [Compound 2] | 25 to 100 |
| c1ccc2c(c1)C1OCCC1CC21CCN(C2CC3CCC(C3)C2)CC1 (stereo not drawn) [Compound 8] | 25 to 100 |
| c1ccc2c(c1)C1OCCC1CC21CCN(C2C[C@H]3CC[C@@H]2C3)CC1 (stereo partly drawn) [Compound 6] | 25 to 100 |

same assay, conditions: CHO cells expressing M4, calcium mobilization

| SMILES | EC50 [µM] |
| --- | --- |
| CCOC(=O)N1CCC(N2CCC3(CC2)CC2CCOC2c2ccccc23)CC1 (stereo not drawn) [Compound 2] | < 2 |
| c1ccc2c(c1)C1OCCC1CC21CCN(C2CC3CCC(C3)C2)CC1 (stereo not drawn) [Compound 8] | < 2 |
| c1ccc2c(c1)C1OCCC1CC21CCN(C2C[C@H]3CC[C@@H]2C3)CC1 (stereo partly drawn) [Compound 6] | < 2 |

target: T2, M3 muscarinic receptor (Homo sapiens, UniProt P20309); assay: Functional mobilization of intracellular calcium (FLIPR), M3-CHO cells; assay type: cell-based; conditions: 100% efficacy = maximum response obtained with the Carbachol control
T2 construct: expressed in transfected cells; host or cells: CHO (M3-CHO)
Description: as §1, §2, §3, §4, §5, §6

T2 sequence (P20309 whole entry): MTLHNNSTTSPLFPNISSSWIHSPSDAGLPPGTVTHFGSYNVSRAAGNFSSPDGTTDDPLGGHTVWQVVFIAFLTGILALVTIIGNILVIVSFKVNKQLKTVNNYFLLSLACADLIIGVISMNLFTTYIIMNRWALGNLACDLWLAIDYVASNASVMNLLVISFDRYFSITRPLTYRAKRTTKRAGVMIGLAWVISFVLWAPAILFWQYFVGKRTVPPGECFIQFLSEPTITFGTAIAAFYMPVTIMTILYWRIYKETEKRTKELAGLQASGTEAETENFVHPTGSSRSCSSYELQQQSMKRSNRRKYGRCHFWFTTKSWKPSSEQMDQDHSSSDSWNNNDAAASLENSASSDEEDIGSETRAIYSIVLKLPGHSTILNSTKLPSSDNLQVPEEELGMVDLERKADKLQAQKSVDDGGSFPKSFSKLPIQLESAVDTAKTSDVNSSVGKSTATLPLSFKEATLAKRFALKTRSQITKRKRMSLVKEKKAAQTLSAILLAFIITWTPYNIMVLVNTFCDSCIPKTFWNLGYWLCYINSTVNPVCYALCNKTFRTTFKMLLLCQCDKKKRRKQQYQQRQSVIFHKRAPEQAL

| SMILES | Emax [%] |
| --- | --- |
| CCOC(=O)N1CCC(N2CCC3(CC2)CC2CCOC2c2ccccc23)CC1 (stereo not drawn) [Compound 2] | < 25 |
| c1ccc2c(c1)C1OCCC1CC21CCN(C2CC3CCC(C3)C2)CC1 (stereo not drawn) [Compound 8] | < 25 |
| c1ccc2c(c1)C1OCCC1CC21CCN(C2C[C@H]3CC[C@@H]2C3)CC1 (stereo partly drawn) [Compound 6] | < 25 |

same assay, conditions: CHO cells expressing M3, calcium mobilization

| SMILES | EC50 [µM] |
| --- | --- |
| CCOC(=O)N1CCC(N2CCC3(CC2)CC2CCOC2c2ccccc23)CC1 (stereo not drawn) [Compound 2] | > 5 |
| c1ccc2c(c1)C1OCCC1CC21CCN(C2CC3CCC(C3)C2)CC1 (stereo not drawn) [Compound 8] | > 5 |
| c1ccc2c(c1)C1OCCC1CC21CCN(C2C[C@H]3CC[C@@H]2C3)CC1 (stereo partly drawn) [Compound 6] | > 5 |

target: T3, M1 muscarinic receptor (Homo sapiens, UniProt P11229); assay: Functional mobilization of intracellular calcium (FLIPR), M1-CHO cells; assay type: cell-based; conditions: 100% efficacy = maximum response obtained with the Carbachol control
T3 construct: expressed in transfected cells; host or cells: CHO (M1-CHO)
T3 sequence (P11229 1-460): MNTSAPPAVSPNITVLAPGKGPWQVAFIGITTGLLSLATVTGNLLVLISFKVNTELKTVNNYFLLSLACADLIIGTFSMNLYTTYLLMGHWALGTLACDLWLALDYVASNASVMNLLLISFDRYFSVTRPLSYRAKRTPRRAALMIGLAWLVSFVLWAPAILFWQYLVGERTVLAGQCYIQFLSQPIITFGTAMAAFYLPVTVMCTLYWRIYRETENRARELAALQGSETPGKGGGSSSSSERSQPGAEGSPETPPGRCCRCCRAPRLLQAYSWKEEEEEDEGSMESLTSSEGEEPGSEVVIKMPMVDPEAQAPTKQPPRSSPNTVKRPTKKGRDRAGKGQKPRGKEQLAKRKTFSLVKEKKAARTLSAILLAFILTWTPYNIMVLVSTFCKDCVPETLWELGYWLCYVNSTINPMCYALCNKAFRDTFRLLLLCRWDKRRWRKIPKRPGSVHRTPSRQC
Description: as §1, §2, §3, §4, §5, §6

| SMILES | Emax [%] |
| --- | --- |
| CCOC(=O)N1CCC(N2CCC3(CC2)CC2CCOC2c2ccccc23)CC1 (stereo not drawn) [Compound 2] | 25 to 100 |
| c1ccc2c(c1)C1OCCC1CC21CCN(C2CC3CCC(C3)C2)CC1 (stereo not drawn) [Compound 8] | 25 to 100 |
| c1ccc2c(c1)C1OCCC1CC21CCN(C2C[C@H]3CC[C@@H]2C3)CC1 (stereo partly drawn) [Compound 6] | < 25 |

same assay, conditions: CHO cells expressing M1, calcium mobilization

| SMILES | EC50 [µM] |
| --- | --- |
| CCOC(=O)N1CCC(N2CCC3(CC2)CC2CCOC2c2ccccc23)CC1 (stereo not drawn) [Compound 2] | < 2 |
| c1ccc2c(c1)C1OCCC1CC21CCN(C2CC3CCC(C3)C2)CC1 (stereo not drawn) [Compound 8] | > 5 |
| c1ccc2c(c1)C1OCCC1CC21CCN(C2C[C@H]3CC[C@@H]2C3)CC1 (stereo partly drawn) [Compound 6] | > 5 |

target: T4, M2 muscarinic receptor (Homo sapiens, UniProt P08172); assay: Functional mobilization of intracellular calcium (FLIPR), M2-CHO cells; assay type: cell-based; conditions: 100% efficacy = maximum response obtained with the Carbachol control
T4 construct: expressed in transfected cells; host or cells: CHO (M2-CHO)
T4 sequence (P08172 1-466): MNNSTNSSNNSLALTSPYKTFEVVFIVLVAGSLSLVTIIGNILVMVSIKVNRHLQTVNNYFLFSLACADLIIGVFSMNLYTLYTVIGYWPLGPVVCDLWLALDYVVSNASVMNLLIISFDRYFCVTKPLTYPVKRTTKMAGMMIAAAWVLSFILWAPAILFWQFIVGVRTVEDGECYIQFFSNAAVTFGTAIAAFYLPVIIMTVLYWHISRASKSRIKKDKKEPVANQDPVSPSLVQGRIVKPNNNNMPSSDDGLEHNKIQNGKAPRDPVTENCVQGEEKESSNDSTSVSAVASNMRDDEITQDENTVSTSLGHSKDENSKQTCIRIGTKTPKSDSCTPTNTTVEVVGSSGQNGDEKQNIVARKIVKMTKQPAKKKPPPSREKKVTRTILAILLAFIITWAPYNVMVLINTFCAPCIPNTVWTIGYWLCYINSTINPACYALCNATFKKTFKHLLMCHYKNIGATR
Description: as §1, §2, §3, §4, §5, §6

| SMILES | Emax [%] |
| --- | --- |
| CCOC(=O)N1CCC(N2CCC3(CC2)CC2CCOC2c2ccccc23)CC1 (stereo not drawn) [Compound 2] | 25 to 100 |
| c1ccc2c(c1)C1OCCC1CC21CCN(C2CC3CCC(C3)C2)CC1 (stereo not drawn) [Compound 8] | < 25 |
| c1ccc2c(c1)C1OCCC1CC21CCN(C2C[C@H]3CC[C@@H]2C3)CC1 (stereo partly drawn) [Compound 6] | < 25 |

same assay, conditions: CHO cells expressing M2, calcium mobilization

| SMILES | EC50 [µM] |
| --- | --- |
| CCOC(=O)N1CCC(N2CCC3(CC2)CC2CCOC2c2ccccc23)CC1 (stereo not drawn) [Compound 2] | < 2 |
| c1ccc2c(c1)C1OCCC1CC21CCN(C2CC3CCC(C3)C2)CC1 (stereo not drawn) [Compound 8] | > 5 |
| c1ccc2c(c1)C1OCCC1CC21CCN(C2C[C@H]3CC[C@@H]2C3)CC1 (stereo partly drawn) [Compound 6] | > 5 |
